Results taken from US11174216B2, “Lipids that increase insulin sensitivity and methods of using the same” (Beth Israel Deaconess Medical Center, Inc., priority 2012, dated 2021).

What was measured:
Format in all cases: cell-based
Ins1 cells = assay: Insulin release studies in Ins1 cells; conditions: 25 mM glucose in the media
Protocol: Ins1 cells (FIGS. 31A and 31B) or primary rat islet cells (FIG. 32A and FIG. 32B) were seeded in 24 well-plates [˜10^6 cells/well]. At confluence, cells were incubated with Low Serum [2.5%] and Low Glucose [2.5 mM] media for 12 hours. Next, cells were incubated with KRB buffer for 1 h and stimulated with glucose in the presence of 5-PAHSA (FIGS. 31a and 31B) or 9-PAHSA (FIG. 31B) for 45 min in KRB. At the end of the stimulation, 100 μL of media was collected and 10 μL was used to quantitate the amount of insulin released by ELISA. Treatment Conditions for FIGS. 31A, 31B and 32B were: • 5-PAHSA or 9-PAHSA [Stock]=20.0 mM [10.76 mg/mL Methanol] • A] 1 uM=0.3 uL/6 mL [Amount of methanol/mL=0.05 uL] • B] 5 uM=1.5 uL/6 mL [Amount of methanol/mL=0.25 uL] • C] 10 uM=3.0 uL/6 mL [Amount of methanol/mL=0.50 uL] • D] 20 uM=6.0 uL/6 mL [Amount of methanol/mL=1.00 uL]
Ins1 cells were seeded in 24 well-plates [˜10^6 cells/well] and at 80% confluence, were cultured overnight in RPMI 1640 medium containing 2.5 mM glucose and 2.5% fetal bovine serum supplemented with 100 IU/ml penicillin and […], 1 mM sodium pyruvate, 2-mercaptoethanol (50 μM) and 10 mM HEPES (pH 7.4). […] At the end of the stimulation supernatant was collected and insulin released into the medium was quantified by ELISA as per manufacturer's protocol. […]

STC-1 cells [1] = assay: Calcium flux (FURA2) in STC-1 cells; conditions: 100 uM, no extracellular Ca2+
Protocol: For the experiments summarized in FIG. 49 the method is: Cells grown on collagen coated glass slides were preloaded with the calcium indicator, FURA2, for 60 minutes. Buffer containing either FAHFAs or vehicle was incubated with cells for a period of 3 minutes followed by washout with buffer alone. FURA2 fluorescence, an indicator of Calcium mobilization, was monitored continuously before and during the addition of compounds and throughout the washout period. Results were analyzed with metamorph software. Calcium Flux in STC-1 (intestinal enteroendocrine) cells in the absence of extracellular calcium (calcium free buffer). Ligands were injected after 3 minutes and washed out after an additional 3 minutes. The data presented is the average fold change in Fura2 fluorescence for 10 individual STC-1 cells in the same field.
DMSO control had no effect. Top panel is linoleic acid, a positive control. Middle panel 9-PAHSA (100 uM). Bottom panel 5-PAHSA (100 μM). These experiments were done in the absence of extracellular calcium.

STC-1 cells [2] = assay: ERK phosphorylation in STC-1 cells (immunoblot); conditions: 15 minutes
Protocol: For the experiments summarized in FIG. 50, STC-1 cells were incubated with 9-PAHSA, 5-PAHSA or 9-OAHSA at the indicated concentrations. Cells were harvested and lysed and proteins were separated by SDS PAGE and transferred onto nitrocellulose filters. The phosphorylation of ERK and the amount of total ERK was determined by immunoblotting with antibodies specific for total or phosphor-ERK. DMSO was the control. For ERK phosphorylation, cells were serum deprived overnight and stimulated with FAHFAs or vehicle as indicated for 15 minutes followed by lysis in RIPA buffer and analysis by SDS-PAGE

STC-1 cells [3] = assay: GLP-1 secretion in STC-1 enteroendocrine cells (ELISA)
Protocol: For the experiments summarized in FIG. 51 STC-1 cells were incubated with vehicle (DMSO), 9-PAHSA, 5-PAHSA or 9-OAHSA at the indicated concentrations or lineolic acid (100 uM) as a positive control. Media was harvested and GLP-1 was measured by ELISA.
For the experiments summarized in FIG. 52, the same protocol as described for FIG. 51 was used, except in this experiment a time course was performed. For both FIG. 51 and FIG. 52, for GLP-1 secretion STC1 cells were washed 3× with serum free culture media followed by stimulation with FAHFAs or vehicle at the indicated concentrations and timepoints. Levels of active GLP-1 were measured by ELISA.

GPR120 = target: T1, GPR120 (Homo sapiens, UniProt Q5NUL3); assay: PATHHUNTER beta-Arrestin GPCR assay
T1 sequence (Q5NUL3 1-361): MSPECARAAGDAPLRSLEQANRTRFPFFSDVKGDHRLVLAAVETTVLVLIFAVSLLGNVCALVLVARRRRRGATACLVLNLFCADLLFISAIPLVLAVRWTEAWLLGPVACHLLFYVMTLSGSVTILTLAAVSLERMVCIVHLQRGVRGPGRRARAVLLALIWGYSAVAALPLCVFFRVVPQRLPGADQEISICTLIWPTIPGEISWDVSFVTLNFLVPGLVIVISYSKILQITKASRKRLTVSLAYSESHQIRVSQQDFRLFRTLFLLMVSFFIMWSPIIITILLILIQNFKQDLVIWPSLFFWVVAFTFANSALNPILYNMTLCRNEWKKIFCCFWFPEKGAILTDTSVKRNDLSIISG
From the text: For the experiments summarized in FIGS. 53-55, the fragment based GPCR assay from DiscoveRx (PATHHUNTER® β-Arrestin assay) was used to as per manufacturer's instructions to determine activation of specific GPCRs as indicated in FIGS. 53-55.

Structure (SMILES)	insulin secretion (Ins1 cells)	Ca2+ flux from intracellular stores (STC-1 cells [1])	ERK phosphorylation (STC-1 cells [2])	GLP-1 secretion (STC-1 cells [3])	activation of GPR120 (GPR120)	time course for GLP-1 secretion (STC-1 cells [3])	ligand for GPR120 (GPR120; bar graph and titration curve)
CCCCCCCCCCCCCCCC(=O)OC(CCCCCCCCCCCCC)CCCC(=O)O (stereo not drawn) [5-PAHSA]	potentiate insulin secretion	induce Ca^2+ flux from intracellular stores	induce ERK phosphorylation	induce GLP-1 secretion	activate GPR120		
CCCCCCCCCCCCCCCC(=O)OC(CCCCCCCCC)CCCCCCCC(=O)O (stereo not drawn) [9-PAHSA, palmitoyl-9-hydroxystearic acid]	potentiate insulin secretion	induce Ca^2+ flux from intracellular stores	induce ERK phosphorylation	induce GLP-1 secretion	activate GPR120	very rapid and sustained	is a ligand for the GPCR, GPR120
